Holding throughout (assay type): physicochemical
Data set [1] in a line: Effect of pH on concentration and purity of the peptide in 50 mM sodium acetate buffer (RP-HPLC). To be noted: 2.5 mg/mL in 50 mM sodium acetate buffer, pH 3.0, 4.0, 5.0; 4° C. or 37° C., 15 days. Here is the method: FIG. 4. Effect of pH on concentration of peptide identified as Seq ID No. 1, in samples formulated and stored at 4° C. (A) and at 37° C. (B).
FIG. 5. Effect of pH on the purity of the peptide identified as Seq ID No. 1, in samples formulated and stored at 37° C.
Three pH values were analyzed: 3.0; 4.0 and 5.0. Samples were filtered and stored at 4° C. or at 37° C., for 15 days. Evaluation of stability and concentration of peptide was carried out by RP-HPLC. Results of concentration of peptide stored at 4° C. or at 37° C., respectively, are shown in FIGS. 4A and 4B, respectively. […] At 37° C., precipitation process is accelerated.
Chemical integrity of peptide (expressed as % purity in RP-HPLC) was greater than 95%, for the samples formulated in three pH values, when these were stored at 4° C., for 15 days.

Data set [2] is described as follows: Solubility of the peptide in buffers and excipients, determined by RP-HPLC. As for the experimental part:
Different ionic species, pH and excipients were evaluated, to achieve the total solubility of the peptide, and a high chemical stability. Solubility of peptide was evaluated with different excipients, which included different ionic salts, sugars, polyols, amino acids and detergents.
First stage of the formulation development included the evaluation of buffer species influence and pH on chemical and physical stability of the peptide.

Data set [3] is described as follows: Molecular exclusion chromatography-HPLC of the peptide in water, PBS and sucrose. To be noted: dissolved in water (control). The text has this: FIG. 3. Molecular exclusion chromatography—HPLC of the peptide of Seq ID No. 1 dissolved in water (A), in phosphate buffered saline (PBS) (B) and in sucrose (C).
In PBS the peptide eluted in a shorter retention time, compared to the sample dissolved in water and in sucrose solution.

Data set [4] is described as follows: Stability of the peptide in 50 mM sodium phosphate buffer pH 7.4 at 37° C. (RP-HPLC, mass spectrometry). As for the experimental part:
FIG. 1. Chromatographic profile of APL-type peptide identified as Seq ID No. 1 dissolved in 50 mM sodium phosphate buffer, pH 7.4. The profile was obtained by reverse phase chromatography (RP-HPLC), (A) time 0, (B) 15 days of storage at 37° C.
APL type peptide was obtained by chemical synthesis. […] To study the causes of such effect, peptide was dissolved in that buffer and stored at 37° C. for 15 days. Subsequently, several aliquots were analyzed periodically by RP-HPLC. Presence of contaminating species was verified, these were purified and analyzed by mass spectrometry, and several fractions were identified that could correspond to degradations.
In order to accelerate the degradation, peptide was incubated under stress conditions that allow the possible degraded species of the peptide to be obtained fast and in high proportions. Fractions collected after RP-HPLC were characterized by mass spectrometry.

“Also recorded” adds a separate entry of the source. Where no end group is shown, it is not given here.

Take “SIDLKDKYKNIGAKLVQLVANNTNEEA [peptide identified as Seq ID No. 1]”: the “physical stability of peptide” value in data set [1] is “greater at pH 3.0”. In addition, the solubility of peptide entry in data set [2] (in other ionic species: sodium citrate, sodium glutamate and Tris-HCl) is “very poorly soluble”; in data set [2] (in sodium phosphate buffer (50 mM, pH 7.4)), “very poorly soluble; also recorded: poorly soluble”; in data set [2] (in solutions of sucrose or trehalose, peptide 1-10 mg/mL) it was “highest solubility”; in data set [2] (sodium acetate buffer (acetic acid and sodium hydroxide), 10-70 mM) it was “best solubilized the peptide”; in data set [3], “good solubility”. The “degraded species identified by mass spectrometry (fractions 1, 2 and 4)” value in data set [4] (50 mM sodium phosphate buffer pH 7.4, 15 days at 37° C.) is given as “deamidated variants of the peptide”. Further, the “stability of peptide in solution” value in data set [4] (50 mM sodium phosphate buffer, pH 7.4) is on record as “progressively destabilized”.

Values taken from US20240316147A1, “PHARMACEUTICAL COMPOSITION COMPRISING AN APL TYPE PEPTIDE” (CENTRO DE INGENIERIA GENÉTICA Y BIOTECNOLOGIA, priority 2017, published 2024).
